Patent US20240285681A1, “CELLS FOR TREATING INFECTIONS” (LIfT BioSciences Ltd, priority 2019, published 2024)
Where “and” joins values, the source holds several entries; their conditions need not be identical. Identical values can stand only once.

Columns and labels:
P. aeruginosa RP73 = experiment: Neutrophil bacterial co-culture (BKA) assay, P. aeruginosa RP73; type: cell-based; settings: 2 hours
Method: (§1) 24 hours prior to use, overnight cultures (ONCs) of all strains (P. aeruginosa: multidrug resistant Cystic Fibrosis isolate RP73 (Di Lorenzo et al (2015), Mol. Immunol., 63, 166-175); MRSA: Community acquired strain USA300 (Diep et al (2006), Lancet, 367, 731-739)) were prepared by inoculating 20 ml tryptic soy broth (3% w/v TSB in deionised water) with 2 stock cryobeads for 24 hours at 37° C., under shaking at 120 rpm (Sciquip mini incu shake). After incubation, ONCs were centrifuged at 2,800 g for 20 minutes at 4° C. The pellet was then resuspended in 10 ml Roswell Park Memorial Institute (RPMI) 1640 medium (commercially available from Sigma-Aldrich, UK). Optical density readings were then taken for all strains and diluted in RPMI 1640 to an OD of 0.015, equivalent of 1×10^7 cfu/ml.
Bacterial cultures were prepared as described above. 100 μl of 1×10^7 cfu/ml bacterial strains were added to either 100 μl RPMI 1640, 100 μl 1×10^7/ml neutrophils or increasing concentrations of Tobramycin (for P. aeruginosa) or Vancomycin (for MRSA) (1, 10, 100 μg/ml). These cultures were then incubated at 37° C., under shaking at 120 rpm for up to 24 hours. At 2, 6 and 24 hours, 20 μl aliquots of each sample were diluted in sterile RPMI at 1/10, 1/100, 1/1000, 1/10000, 1/100000 and 1/1000000 and plated on Tryptic Soy Agar (TSA) and incubated at 37° C. for 24 hours. Post incubation, bacterial colonies were manually counted and the total cfu content quantified.
(§2) To validate an in vitro model of neutrophil bacterial killing activity (BKA) assay, increasing concentrations of neutrophils (1×10^5, 5×10^5 and 1×10^6 neutrophils per sample) were incubated with 1×10^6 cfu/ml of the P. aeruginosa strain RP73 under suspension. These neutrophil/bacterial cultures were then incubated for 2 hours at 37° C. under 120 rpm of shaking. […] Post incubation, bacterial colonies were manually counted and the total cfu content quantified.

MRSA USA300 = experiment: Neutrophil bacterial co-culture (BKA) assay, MRSA USA300; type: cell-based, Staphylococcus aureus; settings: 2 hours
Method: The “MRSA assay” is carried out as follows: • a. admixing 100 μl of a 1×10^7 CFU/ml solution of MRSA strain USA300 in RPMI 1640 with 100 μl of a solution containing 1×10^7 granulocytes/ml; • b. incubating the admixture at 37° C. under shaking at 120 rpm; • c. taking a sample at 2 hours (diluting in sterile RPMI as needed) and plating on Tryptic Soy Agar; • d. incubating the plated sample at 37° C. for 24 hours; • e. counting the bacterial colonies; and • f. quantifying the total CFU content; and • g. calculating the % of MRSA cells killed based on the CFU content in steps a. and f using the formula ((CFU contentno effector−CFU contenteffector)/CFU contentno effector)×100.
as §1
Bacterial cultures were prepared as described above. […] Post incubation, bacterial colonies were manually counted and the total cfu content quantified.
as §2, with “suspension.” for “suspension. These neutrophil/bacterial cultures were then incubated for 2 hours at 37° C. under 120 rpm of shaking.”

SMILES | Bacterial Killing (%) (P. aeruginosa RP73; antibiotic 1 μg/ml) | Bacterial Killing (%) (P. aeruginosa RP73; antibiotic 10 μg/ml) | Bacterial Killing (%) (P. aeruginosa RP73; antibiotic 100 μg/ml) | Bacterial Killing (%) (MRSA USA300; antibiotic 10 μg/ml) | Bacterial Killing (%) (MRSA USA300; antibiotic 1 μg/ml) | Bacterial Killing (%) (MRSA USA300; antibiotic 100 μg/ml)
NC[C@H]1O[C@H](O[C@H]2[C@H](O)[C@@H](O[C@H]3O[C@H](CO)[C@@H](O)[C@H](N)[C@H]3O)[C@H](N)C[C@@H]2N)[C@H](N)C[C@@H]1O [Tobramycin] | 6.60±2.22% and 6.60% | 77.78±13.40% and 77.78% | 95.37±2.87 | 25.05±6.13 | – | –
CN[C@H](CC(C)C)C(=O)N[C@H]1C(=O)N[C@@H](CC(N)=O)C(=O)N[C@H]2C(=O)N[C@H]3C(=O)N[C@H](C(=O)N[C@H](C(=O)O)c4cc(O)cc(O)c4-c4cc3ccc4O)[C@H](O)c3ccc(c(Cl)c3)Oc3cc2cc(c3O[C@@H]2O[C@H](CO)[C@@H](O)[C@H](O)[C@H]2O[C@H]2C[C@](C)(N)[C@H](O)[C@H](C)O2)Oc2ccc(cc2Cl)[C@H]1O [Vancomycin] | – | – | – | – | 5.73±3.70% and 5.73% | 92.58±2.01
